Measurements from paper PMC6803965, “A New Class of β–Pyrrolidino-1,2,3-Triazole Derivatives as β-Adrenergic Receptor Inhibitors: Synthesis, Pharmacological, and Docking Studies” (Molecules, 2019).
Converted amounts (≈) assume the structure as drawn. Where two headings read alike, the source gives them in different places.

Assays:
[1] = test system: HepG-2 cells; assay: Cytotoxicity, aqueous one solution reagent; type: cell-based; conditions: for IC50: Homo sapiens, HepG2, 24 h treatment, read-out: IC50 against HepG-2
Description: (§1) The cytotoxic study was carried out as reported previously. Briefly, IMR90, HepG-2, and A549 cells were grown in DMEM (Dulbecco’s Modified Eagle Medium) that contained 10% fetal bovine serum and 1% antibiotics. A total of 15 × 10^3 cells/well were seeded in 96-well plates and incubated under humidified conditions. Cells were treated with varying concentrations of synthesized triazoles for 24 h. After a 24 h treatment, 20 µL aqueous one solution reagent was added to each well and incubated for 3–4 h under a humidified condition. For IMR90 cells, MTT (MTT = 3-(4,5-dimethyl-2-thiazolyl)-2,5-diphenyl-2H-tetrazolium bromide) (5 mg/mL) was added and incubated for 3–4 h in the dark. After incubation, 100 µL of a 10% SDS (Sodium Dodecyl Sulfate) solution (0.01% HCl) was added to each well. The data was taken using an ELISA (enzyme-linked immunosorbent assay) reader at the absorbance of 490 nm for HepG-2 and A549 cells and 570 nm for IMR90 cells. The cell death was calculated using the following formula: Inhibition (%) = ((A − B)/A) × 100 (A—control group, B—treated group).

[2] = test system: A549 cells; assay: Cytotoxicity, aqueous one solution reagent; type: cell-based; conditions: for IC50: Homo sapiens, 24 h treatment, read-out: IC50 against A549
Description: as §1

[3] = test system: Proteus vulgaris; assay: Minimum inhibitory concentration (MIC); type: cell-based; conditions: read-out: Minimum inhibitory concentration
Description: (§2) The MIC experiment was carried out according to the standard reference methods. Briefly, the required concentrations of synthesized compounds 5a–l were dissolved in DMSO (Dimethylsulfoxide) in concentrations of 500 µg/mL, 250 µg/mL, 125 µg/mL, 62.5 µg/mL, 31.25 µg/mL, 15.6 µg/mL, and […]. An inoculum of 100 µL from each well (96-well plate) was inoculated. For the positive control, ketoconazole (fungi) and streptomycin (bacteria) was used. The MIC values for the tested bacteria were identified as the lowest inhibiting concentration of compound on the agar plate in visual growth.

[4] = test system: Salmonella typhimurium; assay: Minimum inhibitory concentration (MIC); type: cell-based; conditions: Salmonella enterica, read-out: Minimum inhibitory concentration
Description: as §2

[5] = test system: Klebsiella pneumoniae; assay: Minimum inhibitory concentration (MIC); type: cell-based; conditions: read-out: Minimum inhibitory concentration
Description: as §2

[6] = test system: Staphylococcus aureus-MRSA; assay: Minimum inhibitory concentration (MIC); type: cell-based; conditions: read-out: Minimum inhibitory concentration
Description: as §2

[7] = test system: Staphylococcus epidermidis; assay: Minimum inhibitory concentration (MIC); type: cell-based; conditions: read-out: Minimum inhibitory concentration
Description: as §2

[8] = test system: Staphylococcus aureus; assay: Minimum inhibitory concentration (MIC); type: cell-based; conditions: read-out: Minimum inhibitory concentration
Description: as §2

[9] = test system: Micrococcus luteus; assay: Minimum inhibitory concentration (MIC); type: cell-based; conditions: read-out: Minimum inhibitory concentration
Description: as §2

[10] = test system: Salmonella paratyphi-B; assay: Minimum inhibitory concentration (MIC); type: cell-based
Description: as §2

[11] = test system: Shigella flexneri; assay: Minimum inhibitory concentration (MIC); type: cell-based
Description: as §2

[12] = test system: Proteus vulgaris; assay: Antimicrobial well method, zone of inhibition; type: cell-based
Description: (§3) Antimicrobial activity was carried out as described previously. Briefly, 20 mL of sterile Mueller Hinton agar (MHA) was poured in the petri plates and kept for solidification. After solidification, the test cultures were swabbed on the top of the media and kept for 10 min to dry. The required concentration (1 mg/well) of synthesized compounds 5a–l was added to each well and left for 30 min at RT for compound diffusion. Ketoconazole (fungi) and streptomycin (bacteria) used for positive controls. The zone of inhibition was recorded in mm and the experiment was repeated twice.

[13] = test system: Salmonella typhimurium; assay: Antimicrobial well method, zone of inhibition; type: cell-based; conditions: Salmonella enterica
Description: as §3

[14] = test system: Klebsiella pneumoniae; assay: Antimicrobial well method, zone of inhibition; type: cell-based
Description: as §3

[15] = test system: Staphylococcus aureus-MRSA; assay: Antimicrobial well method, zone of inhibition; type: cell-based
Description: as §3

[16] = test system: Staphylococcus epidermidis; assay: Antimicrobial well method, zone of inhibition; type: cell-based
Description: as §3

[17] = test system: Malassezia pachydermatis; assay: Antimicrobial well method, zone of inhibition; type: cell-based
Description: as §3

[18] = test system: Staphylococcus aureus; assay: Antimicrobial well method, zone of inhibition; type: cell-based
Description: as §3

[19] = test system: Candida albicans; assay: Antimicrobial well method, zone of inhibition; type: cell-based; conditions: 1 mg/well
Description: as §3

[20] = test system: Micrococcus luteus; assay: Antimicrobial well method, zone of inhibition; type: cell-based
Description: as §3

[21] = test system: Salmonella paratyphi-B; assay: Antimicrobial well method, zone of inhibition; type: cell-based
Description: as §3

[22] = test system: Shigella flexneri; assay: Antimicrobial well method, zone of inhibition; type: cell-based
Description: as §3

[23] = test system: IMR90 cells; assay: Cytotoxicity on normal cells, MTT; type: cell-based; conditions: IMR-90, human normal IMR90 cells, 24 h treatment, read-out: IC50 against IMR90
Description: as §1

[24] = test system: tested bacteria; assay: Antimicrobial well method, result in words; type: cell-based; conditions: 1 mg/mL concentration
Description: as §3

[25] = test system: Enterobacter aerogenes; assay: Minimum inhibitory concentration (MIC); type: cell-based; conditions: Klebsiella aerogenes, read-out: Minimum inhibitory concentration
Description: as §2

[26] = test system: Enterobacter aerogenes; assay: Antimicrobial well method, zone of inhibition; type: cell-based; conditions: Klebsiella aerogenes
Description: as §3

Row | SMILES | IC50 [1] | cytotoxic / anticancer activity against A549 cells [2] | IC50 [2] | MIC [3] | MIC [5] | MIC [7] | MIC [8] | MIC [9] | MIC [10] | MIC [11] | zone of inhibition at 1 mg/well [12] | zone of inhibition at 1 mg/well [13] | zone of inhibition at 1 mg/well [14] | zone of inhibition at 1 mg/well [15] | zone of inhibition at 1 mg/well [16] | zone of inhibition at 1 mg/well [18] | zone of inhibition at 1 mg/well [20] | zone of inhibition at 1 mg/well [21] | zone of inhibition at 1 mg/well [22] | IC50 [23] | also measured
1 | Cc1cccc(C(=O)OCc2cn([C@H](c3ccccc3)[C@H](C)N3CCCC3)nn2)c1 [5j, (1R,2S)-(1-(1-Phenyl-2-(pyrrolidin-1-yl)propyl)-1H-1,2,3-triazol-4-yl)methyl 3-methylbenzoate] | > 300 µM | promising anticancer activity | 111 ± 1.82 µM | 62.5 µg/mL (≈ 155 µM) | 62.5 µg/mL (≈ 155 µM) | 250 µg/mL (≈ 618 µM) | 250 µg/mL (≈ 618 µM) | 125 µg/mL (≈ 309 µM) | 125 µg/mL (≈ 309 µM) | 62.5 µg/mL (≈ 155 µM) | 20 mm | 20 mm | 22 mm | 14 mm | 14 mm | 15 mm | 16 mm | 18 mm | 22 mm | > 250 µM | MIC ([4]; TYPHIMURIUM): 62.5 µg/mL (≈ 155 µM); MIC ([6]; Staphylococcus aureus-MRSA): 250 µg/mL (≈ 618 µM); zone of inhibition at 1 mg/well [17]: 11 mm; zone of inhibition [19]: 13 mm; antimicrobial activity against tested bacteria [24]: promising activity
2 | C[C@@H]([C@@H](c1ccccc1)n1cc(COC(=O)c2ccc([N+](=O)[O-])cc2)nn1)N1CCCC1 [5g, (1R,2S)-(1-(1-Phenyl-2-(pyrrolidin-1-yl)propyl)-1H-1,2,3-triazol-4-yl)methyl 4-nitrobenzoate] | > 300 µM | promising anticancer activity | 72 ± 3.21 µM | 31.2 µg/mL (≈ 71.8 µM) | 31.2 µg/mL (≈ 71.8 µM) | 31.2 µg/mL (≈ 71.8 µM) | 125 µg/mL (≈ 287 µM) | 125 µg/mL (≈ 287 µM) | 62.5 µg/mL (≈ 144 µM) | 31.2 µg/mL (≈ 71.8 µM) | 26 mm | 22 mm | 24 mm | 24 mm | 28 mm | 16 mm | 17 mm | 20 mm | 25 mm | > 250 µM | MIC ([4]; TYPHIMURIUM): 62.5 µg/mL (≈ 144 µM); MIC [25]: 62.5 µg/mL (≈ 144 µM); MIC ([6]; Staphylococcus, MRSA): 31.2 µg/mL (≈ 71.8 µM); zone of inhibition at 1 mg/well [26]: 22 mm; zone of inhibition [19]: 13 mm; antimicrobial activity against tested bacteria [24]: promising activity
3 | C[C@@H]([C@@H](c1ccccc1)n1cc(COC(=O)c2ccccc2Cl)nn1)N1CCCC1 [5k, (1R,2S)-(1-(1-Phenyl-2-(pyrrolidin-1-yl)propyl)-1H-1,2,3-triazol-4-yl)methyl 2-chlorobenzoate] |  |  |  | 125 µg/mL (≈ 294 µM) | 250 µg/mL (≈ 588 µM) |  | 125 µg/mL (≈ 294 µM) |  | 125 µg/mL (≈ 294 µM) | 125 µg/mL (≈ 294 µM) | 16 mm | 15 mm | 14 mm | 17 mm |  | 18 mm |  | 18 mm | 17 mm |  | MIC ([4]; Salmonella typhimurium): 250 µg/mL (≈ 588 µM); MIC ([25]; Enterobacter aerogenes): 62.5 µg/mL (≈ 147 µM); MIC ([6]; Staphylococcus, MRSA): 125 µg/mL (≈ 294 µM); zone of inhibition at 1 mg/well [26]: 22 mm; antimicrobial activity against tested bacteria [24]: promising activity; melting point: 101 to 102 °C
4 | COc1ccc(C(=O)OCc2cn([C@H](c3ccccc3)[C@H](C)N3CCCC3)nn2)cc1OC [5h, (1R,2S)-(1-(1-Phenyl-2-(pyrrolidin-1-yl)propyl)-1H-1,2,3-triazol-4-yl)methyl-3,4-dimethoxy-benzoate] | 73 ± 3.88 µM | promising anticancer activity | 58 ± 2.31 µM | 62.5 µg/mL (≈ 139 µM) | 62.5 µg/mL (≈ 139 µM) | 125 µg/mL (≈ 277 µM) | 250 µg/mL (≈ 555 µM) | 250 µg/mL (≈ 555 µM) | 62.5 µg/mL (≈ 139 µM) | 125 µg/mL (≈ 277 µM) | 23 mm | 22 mm | 20 mm | 20 mm | 16 mm | 15 mm | 14 mm | 19 mm | 18 mm | > 250 µM | MIC ([4]; TYPHIMURIUM): 62.5 µg/mL (≈ 139 µM); MIC [25]: 125 µg/mL (≈ 277 µM); MIC ([6]; Staphylococcus, MRSA): 62.5 µg/mL (≈ 139 µM); zone of inhibition at 1 mg/well [26]: 17 mm; antimicrobial activity against tested bacteria [24]: promising activity
5 | CC(C(c1ccccc1)n1cc(COC(=O)c2ccc(C(C)(C)C)cc2)nn1)N1CCCC1 [5i, (1R,2S)-(1-(1-Phenyl-2-(pyrrolidin-1-yl)propyl)-1H-1,2,3-triazol-4-yl)methyl 4-tert-butyl benzoate] | 197 ± 2.34 µM | promising anticancer activity | 134 ± 1.05 µM |  | 500 µg/mL (≈ 1120 µM) | 500 µg/mL (≈ 1120 µM) | 125 µg/mL (≈ 280 µM) | 125 µg/mL (≈ 280 µM) | 500 µg/mL (≈ 1120 µM) | 250 µg/mL (≈ 560 µM) |  |  | 12 mm | 14 mm | 11 mm | 16 mm | 16 mm | 12 mm | 14 mm | > 250 µM | cytotoxic activity against HepG-2 cells [1]: moderate activity; MIC ([25]; Enterobacter aerogenes): 250 µg/mL (≈ 560 µM); MIC ([6]; Staphylococcus aureus-MRSA): 250 µg/mL (≈ 560 µM); zone of inhibition at 1 mg/well [26]: 14 mm; zone of inhibition at 1 mg/well [17]: 10 mm; zone of inhibition [19]: 12 mm
